Publication doi:10.1101/2024.08.19.608619, “Discovery of potent SARS-CoV-2 nsp3 macrodomain inhibitors uncovers lack of translation to cellular antiviral response” (bioRxiv, 2024)
Converted amounts (≈) assume the structure as drawn.

How the values were obtained:
[1] = test system: SARS-CoV-2, isolate USA-WA1/2020; test: microbe, parasite or virus in culture; format: cell-based; conditions: HeLa-ACE2 SARS-CoV-2 antiviral effect without P-gp inhibitor
SARS-CoV-2 = test: Antiviral effect in iPSC-derived pneumocyte system; format: cell-based; conditions: iPSC pneumocytes SARS-CoV-2 antiviral effect
[2] = Hepatic microsomal stability, HLM; format: in vitro ADME, human; conditions: In vitro human liver microsomal stability
[3] = Hepatic microsomal stability, MLM; format: in vitro ADME; conditions: In vitro mouse liver microsomal stability
iPSC pneumocytes = iPSC pneumocytes cytotoxicity; format: cell-based
Excerpt: Supplement media-1.zip/Cytotoxicity.csv, table | column: cc10; cc50; perc_min_measured; perc_max_measured

HeLa-ACE2 cells = conditions: protocol HeLa-ACE2 cytotoxicity
MERS-CoV = format: cell-based; conditions: Vero 76 MERS-CoV antiviral effect
LogD = conditions: pH 7.4; In vitro LogD
in vitro [4] = test: in vitro; parameters: Cytotoxicity in iPSC-derived pneumocytes, CC50; conditions: human, ipsc-derived pneumocytes; ASAP-0008327-001=ASAP-0011153-001; read-out: 50.0
in vitro [5] = conditions: human, hela-ace2 cells, 50.0
[6] = In vitro kinetic solubility; conditions: In vitro kinetic solubility, ph 7.4
[7] = Permeability Papp (AB) MDR1/MDCKII; conditions: In vitro MDR1-MDCKII permeability, mean
[8] = maximum measured response of dose series
[9] = minimum measured response of dose series
[10] = highest measured response of the dose series
[11] = lowest measured response of the dose series

**Q.** With `CNC(=O)c1c[nH]c2ncnc(N[C@H](c3ccc4c(c3)S(=O)(=O)CCC4)C(C)C)c12` (single isomer, unassigned) [ASAP-0011153] as the compound, how does the perc_max_measured [1, 8] read?
**A.** 109.331%

**Q.** What about the perc_min_measured [1, 9] of the same compound?
**A.** 66.391%

**Q.** And the EC50 ([1]; read-out: ec50)?
**A.** > 20 µM

**Q.** What about the EC90 ([1]; read-out: ec90) of the same compound?
**A.** > 20 µM

**Q.** What about the EC50 (SARS-CoV-2) of the same compound?
**A.** 6.74 µM

**Q.** And the EC90 (SARS-CoV-2)?
**A.** > 50 µM

**Q.** And the perc_max_measured (SARS-CoV-2; [8])?
**A.** 88.736%

**Q.** And the perc_min_measured (SARS-CoV-2; [9])?
**A.** 31.934%

**Q.** And the clint [2]?
**A.** 258.0 µL/min/mg

**Q.** What about the perc_remaining [2] of the same compound?
**A.** 1.0%

**Q.** What about the t_half [2] of the same compound?
**A.** 6.5 min

**Q.** What about the perc_remaining_no_cofactor ([2]; no cofactor) of the same compound?
**A.** 94.0%

**Q.** What about the clint [3] of the same compound?
**A.** 770.0 µL/min/mg

**Q.** And the perc_remaining [3]?
**A.** 0.0%

**Q.** And the t_half [3]?
**A.** 2.2 min

**Q.** And the perc_remaining_no_cofactor ([3]; no cofactor)?
**A.** 99.0%

**Q.** What about the CC50 (iPSC pneumocytes) of the same compound?
**A.** > 50 µM

**Q.** And the cc10 (iPSC pneumocytes)?
**A.** > 50.0 µM

**Q.** And the perc_max_measured (iPSC pneumocytes; [10])?
**A.** 111.957%

**Q.** What about the perc_min_measured (iPSC pneumocytes; [11]) of the same compound?
**A.** 100.111%

**Q.** And the CC50 (HeLa-ACE2 cells)?
**A.** > 20 µM

**Q.** What about the cc10 (HeLa-ACE2 cells) of the same compound?
**A.** > 20.0 µM

**Q.** What about the perc_max_measured (HeLa-ACE2 cells; [10]) of the same compound?
**A.** 96.782%

**Q.** And the perc_min_measured (HeLa-ACE2 cells; [11])?
**A.** 85.977%

**Q.** And the EC50 (MERS-CoV)?
**A.** > 32 µM

**Q.** And the logd (LogD)?
**A.** 2.7

**Q.** And the CC50 (Vero 76)?
**A.** > 32 µM

**Q.** And the CC50 (in vitro [4])?
**A.** > 50 µM

**Q.** What about the CC50 at 24 h (in vitro [5]) of the same compound?
**A.** > 20 µM

**Q.** What about the solubility_mean [6] of the same compound?
**A.** 336 µM (≈ 144 µg/mL)

**Q.** And the papp_a_to_b_mean ([7]; A to B)?
**A.** 1.61 ×10⁻⁶ cm/s

**Q.** And the perc_recovery_a_to_b_mean ([7]; recovery A to B)?
**A.** 92.7%
